Laboratory results as given in BindingDB's records for doi:10.1016/S0960-894X(00)80680-0 (1993).

Assay: Displacement of [125I]Bolton-Hunter-CCK-8 from guinea pig cortex Cholecystokinin type B receptor

Question: For `CN(C(=O)[C@H](CC(=O)O)NNC[C@H](CCCCNC(=O)C=Cc1ccc(O)cc1)NC(=O)[C@H](Cc1c[nH]c2ccccc12)NC(=O)OC(C)(C)C)[C@@H](Cc1ccccc1)C(N)=O` [3-(N'-{(S)-2-[(S)-2-tert-Butoxycarbonylamino-3-(1H-indol-3-yl)-propionylamino]-6-[(Z)-3-(4-hydroxy-phenyl)-acryloylamino]-hexyl}-hydrazino)-N-((S)-1-carbamoyl-2-phenyl-ethyl)-N-methyl-succinamic acid], which IC50 is on record?
Answer: The IC50 was 5 µM.

Question: With `CC(C)(C)OC(=O)N[C@@H](Cc1c[nH]c2ccccc12)C(=O)N[C@@H](CCCCNC(=O)C=Cc1ccc(O)cc1)CNN[C@@H](CC(=O)O)C(=O)N[C@@H](Cc1ccccc1)C(N)=O` [3-(N'-{(S)-2-[(S)-2-tert-Butoxycarbonylamino-3-(1H-indol-3-yl)-propionylamino]-6-[(Z)-3-(4-hydroxy-phenyl)-acryloylamino]-hexyl}-hydrazino)-N-((S)-1-carbamoyl-2-phenyl-ethyl)-succinamic acid] as the compound, how does the IC50 read?
Answer: Its IC50 is 3.8 µM.

Question: With `Cc1ccccc1NC(=O)NCCCC[C@H](NC(=O)[C@H](Cc1c[nH]c2ccccc12)NC(=O)OC(C)(C)C)C(=O)N[C@H](CNN[C@@H](Cc1ccccc1)C(N)=O)CC(=O)O` [3-{2-[2-tert-Butoxycarbonylamino-3-(1H-indol-3-yl)-propionylamino]-6-[(S)-3-((1S,2S)-o-tolyl)-ureido]-hexanoylamino}-4-[N'-((S)-1-carbamoyl-2-phenyl-ethyl)-hydrazino]-butyric acid] as the compound, how does the IC50 read?
Answer: The IC50 was > 10 µM.

Question: With `Cc1ccccc1NC(=O)NCCCC[C@H](NNC[C@H](Cc1c[nH]c2ccccc12)NC(=O)OC(C)(C)C)C(=O)N[C@@H](CC(=O)O)C(=O)N[C@@H](Cc1ccccc1)C(N)=O` [(S)-3-[(S)-2-[N'-((S)-2-tert-Butoxycarbonylamino-3-1H-indol-3-yl-propyl)-hydrazino]-6-(3-o-tolyl-ureido)-hexanoylamino]-N-((S)-1-carbamoyl-2-phenyl-ethyl)-succinamic acid] as the compound, how does the IC50 read?
Answer: The IC50 was 2.5 µM.

Question: For `CC(C)(C)OC(=O)N[C@@H](Cc1c[nH]c2ccccc12)C(=O)N[C@@H](CCCCNC(=O)C=Cc1ccc(O)cc1)C(=O)N[C@H](CNN[C@@H](Cc1ccccc1)C(N)=O)CC(=O)O` [(S)-3-{2-[2-tert-Butoxycarbonylamino-3-(1H-indol-3-yl)-propionylamino]-6-[(S)-3-((S)-4-hydroxy-phenyl)-acryloylamino]-hexanoylamino}-4-[N'-((S)-1-carbamoyl-2-phenyl-ethyl)-hydrazino]-butyric acid], which IC50 is on record?
Answer: Its IC50 is 7 µM.

Question: For `Cc1ccccc1NC(=O)NCCCC[C@@H](CNN[C@@H](CC(=O)O)C(=O)N(C)[C@@H](Cc1ccccc1)C(N)=O)NC(=O)[C@H](Cc1c[nH]c2ccccc12)NC(=O)OC(C)(C)C` [(S)-3-{N'-[2-((3aS,7S)-2-tert-Butoxycarbonylamino-3-1H-indol-3-yl-propionylamino)-6-(3-o-tolyl-ureido)-hexyl]-hydrazino}-N-((S)-1-carbamoyl-2-phenyl-ethyl)-N-methyl-succinamic acid], which IC50 is on record?
Answer: The IC50 was > 10 µM.
